As a reminder, the Dmax is the largest share of the target that was removed. For orientation: DC50 means the midpoint of the concentration-degradation curve.

Holding throughout (type): cell-based
The target of test [1] is T1, SMARCA4 (Homo sapiens, UniProt P51532).
T1 construct: SMARCA2/SMARCA4 protein degradation selectivity in MV4-11 cells; endogenous in cells; host or cells: MV4-11
As to the kind of experiment: SMARCA4 Western blot degradation in MV4-11 cells. The following applies: 24 h; for Dmax: MV4-11, MV4-11 cells, read-out: SMARCA4 MSD MV411 degradation 24 h: average Dmax %; for DC50: MV4-11 cells, read-out: SMARCA4 MSD MV411 degradation 24 h: Mean external-Abs DC50. An outline of the steps:
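24 h compound exposure, MV4-11; RIPA lysates → SDS-PAGE → NC membrane; anti-SMARCA2/BRM, anti-BRG1, β-actin loading control; LI-COR fluorescence read. DC50 and Dmax at 24 h reported as letter bins.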
(Immunoblotting shows a protein as a band on a membrane.)

Test [2] concerns the target T2, SMARCA2 (Homo sapiens, UniProt P51531). As to the kind of experiment: MSD SMARCA2 degradation in A549 cell line. The following applies: 24 h; for Dmax: A549, A549 cells; for DC50: A549 cells, read-out: SMARCA2 MSD A549 degradation 24 h: Average external-Abs DC50. An outline of the steps: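 A549 cells treated 24 h with compound, 3-fold series from 1000 nM. Lysates captured on MSD plates and SMARCA2 quantified with anti-SMARCA2 and SULFO-TAG secondary antibodies (electrochemiluminescence). DC50 and Dmax (% degradation at 24 h) reported as letter bins.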

Test [3] deals with T2, SMARCA2. As to the kind of experiment: SMARCA2 Western blot degradation in MV4-11 cells. The following applies: for Dmax: MV4-11, MV4-11 cells, read-out: SMARCA2 MSD MV411 degradation 24 h: average Dmax %; for Dmax / DC50: 24 h; for DC50 / Selectivity in MV411: MV4-11 cells; for DC50: read-out: SMARCA2 MSD MV411 degradation 24 h: Mean external-Abs DC50; for Selectivity in MV411: SMARCA2/4 selectivity. Also noted: SMARCA2/SMARCA4 protein degradation selectivity in MV4-11 cells; endogenous in cells; host or cells: MV4-11.

T2 sequence (P51531 whole entry): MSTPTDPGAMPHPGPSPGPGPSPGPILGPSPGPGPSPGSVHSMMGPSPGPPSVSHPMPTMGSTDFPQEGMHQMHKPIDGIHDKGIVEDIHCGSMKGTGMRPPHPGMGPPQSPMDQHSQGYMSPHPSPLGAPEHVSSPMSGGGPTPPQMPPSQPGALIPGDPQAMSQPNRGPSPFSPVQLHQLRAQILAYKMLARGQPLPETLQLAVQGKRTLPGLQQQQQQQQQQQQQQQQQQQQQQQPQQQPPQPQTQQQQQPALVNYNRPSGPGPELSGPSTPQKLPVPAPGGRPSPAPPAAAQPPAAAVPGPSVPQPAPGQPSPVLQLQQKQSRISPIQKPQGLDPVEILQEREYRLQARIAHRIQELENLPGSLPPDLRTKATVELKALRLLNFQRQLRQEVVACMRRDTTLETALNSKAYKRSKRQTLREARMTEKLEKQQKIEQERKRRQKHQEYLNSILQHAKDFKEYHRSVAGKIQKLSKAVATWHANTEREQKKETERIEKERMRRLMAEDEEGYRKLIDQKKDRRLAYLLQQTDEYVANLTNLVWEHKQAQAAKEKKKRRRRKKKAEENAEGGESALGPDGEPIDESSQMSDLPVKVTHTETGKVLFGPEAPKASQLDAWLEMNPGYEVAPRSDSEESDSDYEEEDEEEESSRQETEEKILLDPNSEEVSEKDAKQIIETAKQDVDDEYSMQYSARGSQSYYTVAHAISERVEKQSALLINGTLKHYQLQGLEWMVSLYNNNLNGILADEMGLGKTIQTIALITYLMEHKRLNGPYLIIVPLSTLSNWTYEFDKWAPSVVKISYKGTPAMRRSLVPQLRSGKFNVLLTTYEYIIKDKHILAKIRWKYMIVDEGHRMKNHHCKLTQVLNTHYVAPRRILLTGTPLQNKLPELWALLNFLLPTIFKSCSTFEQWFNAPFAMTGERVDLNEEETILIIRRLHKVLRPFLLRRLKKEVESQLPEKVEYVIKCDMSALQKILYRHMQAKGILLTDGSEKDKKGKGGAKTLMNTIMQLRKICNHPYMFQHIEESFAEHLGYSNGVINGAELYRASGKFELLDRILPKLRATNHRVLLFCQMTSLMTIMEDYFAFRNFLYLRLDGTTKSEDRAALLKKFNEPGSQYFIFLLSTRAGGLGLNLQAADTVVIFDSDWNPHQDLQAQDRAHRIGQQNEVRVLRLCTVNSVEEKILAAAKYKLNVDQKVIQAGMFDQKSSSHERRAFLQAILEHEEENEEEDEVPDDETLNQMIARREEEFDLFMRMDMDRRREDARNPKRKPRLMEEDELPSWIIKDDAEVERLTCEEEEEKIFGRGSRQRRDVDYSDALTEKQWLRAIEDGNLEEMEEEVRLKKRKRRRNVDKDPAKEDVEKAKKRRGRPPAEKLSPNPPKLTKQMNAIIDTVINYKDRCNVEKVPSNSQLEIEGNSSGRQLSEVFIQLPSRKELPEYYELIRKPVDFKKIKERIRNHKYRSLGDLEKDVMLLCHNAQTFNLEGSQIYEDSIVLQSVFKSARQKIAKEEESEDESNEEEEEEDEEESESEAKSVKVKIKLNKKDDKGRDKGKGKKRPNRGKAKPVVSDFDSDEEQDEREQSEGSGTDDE
T1 sequence (P51532 whole entry): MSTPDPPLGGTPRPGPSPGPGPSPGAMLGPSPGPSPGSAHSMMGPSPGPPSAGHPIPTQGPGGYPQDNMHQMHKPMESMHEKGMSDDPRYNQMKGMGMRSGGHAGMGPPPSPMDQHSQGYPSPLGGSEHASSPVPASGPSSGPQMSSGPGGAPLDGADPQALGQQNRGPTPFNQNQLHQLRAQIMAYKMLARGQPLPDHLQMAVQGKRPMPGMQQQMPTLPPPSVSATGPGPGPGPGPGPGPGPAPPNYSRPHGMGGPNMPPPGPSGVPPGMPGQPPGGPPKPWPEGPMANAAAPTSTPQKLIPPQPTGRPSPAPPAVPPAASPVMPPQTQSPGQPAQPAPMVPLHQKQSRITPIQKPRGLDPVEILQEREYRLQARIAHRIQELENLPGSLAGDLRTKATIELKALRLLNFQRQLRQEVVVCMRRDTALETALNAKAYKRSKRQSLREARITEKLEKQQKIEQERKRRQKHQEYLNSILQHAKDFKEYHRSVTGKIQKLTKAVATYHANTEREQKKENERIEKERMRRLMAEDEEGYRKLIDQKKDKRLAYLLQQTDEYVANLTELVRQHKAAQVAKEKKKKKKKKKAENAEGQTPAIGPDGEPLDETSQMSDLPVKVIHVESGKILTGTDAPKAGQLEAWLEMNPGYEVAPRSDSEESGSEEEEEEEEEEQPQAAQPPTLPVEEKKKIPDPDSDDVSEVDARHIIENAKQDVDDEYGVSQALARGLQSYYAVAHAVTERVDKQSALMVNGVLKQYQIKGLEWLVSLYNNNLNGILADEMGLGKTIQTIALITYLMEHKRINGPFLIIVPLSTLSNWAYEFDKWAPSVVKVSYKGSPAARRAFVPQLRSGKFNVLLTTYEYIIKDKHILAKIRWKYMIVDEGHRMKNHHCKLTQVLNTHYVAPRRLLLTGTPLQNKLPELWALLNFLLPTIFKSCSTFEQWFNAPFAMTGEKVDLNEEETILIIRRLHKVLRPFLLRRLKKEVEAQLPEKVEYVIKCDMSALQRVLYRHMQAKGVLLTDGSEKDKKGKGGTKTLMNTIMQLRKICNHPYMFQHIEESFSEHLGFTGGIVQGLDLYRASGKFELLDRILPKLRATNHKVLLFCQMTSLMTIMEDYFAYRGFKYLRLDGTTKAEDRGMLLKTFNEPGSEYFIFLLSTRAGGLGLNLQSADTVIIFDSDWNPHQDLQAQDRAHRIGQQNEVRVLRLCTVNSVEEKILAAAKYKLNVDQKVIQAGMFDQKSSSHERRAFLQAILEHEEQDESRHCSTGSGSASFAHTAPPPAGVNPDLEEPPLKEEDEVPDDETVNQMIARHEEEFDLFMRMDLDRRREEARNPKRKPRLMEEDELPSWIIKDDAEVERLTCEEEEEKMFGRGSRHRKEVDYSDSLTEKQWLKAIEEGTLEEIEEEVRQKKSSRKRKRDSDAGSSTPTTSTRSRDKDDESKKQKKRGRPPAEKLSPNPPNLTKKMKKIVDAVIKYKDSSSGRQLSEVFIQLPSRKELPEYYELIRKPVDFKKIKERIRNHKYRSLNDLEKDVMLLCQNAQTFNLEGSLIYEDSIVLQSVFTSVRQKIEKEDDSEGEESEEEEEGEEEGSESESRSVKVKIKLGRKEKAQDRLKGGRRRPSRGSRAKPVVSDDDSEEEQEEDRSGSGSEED

Turning to `C#Cc1ccc(CNC(=O)[C@@H]2C[C@@H](O)CN2C(=O)[C@@H](NC(=O)N2CCN(CC3CCN(c4cnc(N5CCN6c7cc(-c8ccccc8O)nnc7NC[C@H]6C5)nc4)CC3)CC2)C(C)(C)C)cc1` [I-163], the greatest degradation seen (Dmax) was 50 to 70% in test [1], above 90% in test [2] and 70 to 90% in test [3]. Further, the DC50 in test [1] was above 100 nM; in test [2], 10 to 50 nM; in test [3], below 1 nM. Besides, the “Selectivity in MV411” value in test [3] is “B (B (>100-500 fold))”.
As for `C#Cc1ccc(CNC(=O)[C@@H]2C[C@@H](O)CN2C(=O)[C@@H](NC(=O)CCCCCCCN2CCC(N3CC4(CC(N5CCN6c7cc(-c8ccccc8O)nnc7NC[C@H]6C5)C4)C3)CC2)C(C)(C)C)cc1` [I-243], in test [1], the greatest degradation seen (Dmax) is below 50% and the half-maximal degradation concentration (DC50) is above 100 nM. In addition, in test [2], the greatest degradation seen (Dmax) is above 90% and the 50% degradation concentration (DC50) is 50 to 100 nM. Moreover, in test [3], the Dmax lay within 70 to 90%, the DC50 lay within 1 to 10 nM and the “Selectivity in MV411” value was “B (B (>100-500 fold))”.
For the molecule `C#Cc1ccc(CNC(=O)[C@@H]2C[C@@H](O)CN2C(=O)C(c2cc(N3CCC(CN4CCC(N5CCC(N6CCN7c8cc(-c9ccccc9O)nnc8NC[C@H]7C6)CC5)CC4)CC3)no2)C(C)C)c(Cl)c1` (some centres unmarked) [I-325], the Dmax in test [1], in test [2] and in test [3] was above 90% in each case. The values for the 50% degradation concentration (DC50) in test [1], in test [2] and in test [3] were 10 to 100 nM, 10 to 50 nM and 1 to 10 nM, respectively. Also, in test [3], the “Selectivity in MV411” value is on record as “C (C (10-100 fold))”.
As for `C#Cc1ccc(CNC(=O)[C@@H]2C[C@@H](O)CN2C(=O)[C@@H](NC(=O)N2CC3(CC(N4CCC(c5cnc(N6CCc7[nH]c8nnc(-c9ccccc9O)cc8c7[C@H]6C)nc5)CC4)C3)C2)C(C)(C)CCO)cc1` [I-288], in test [1], the Dmax was 70 to 90% and the DC50 was in the range of 10 to 100 nM. Besides, in test [2], the Dmax is above 90% and the 50% degradation concentration (DC50) was below 10 nM. Besides, in test [3], the Dmax was above 90%, the half-maximal degradation concentration (DC50) lay in the range of 1 to 10 nM and the “Selectivity in MV411” value was “C (C (10-100 fold))”.
Take `Cc1ncsc1-c1ccc(CNC(=O)[C@@H]2C[C@@H](O)CN2C(=O)[C@@H](OC(=O)N2CC3(CC(N4CCN(c5cnc(N6CCN7c8cc(-c9ccccc9O)nnc8NC[C@H]7C6)nc5)CC4)C3)C2)C(C)(C)C)cc1` [I-96]: in test [1], the Dmax is above 90% and the DC50 lay within 1 to 10 nM. In addition, in test [2], the greatest degradation seen (Dmax) is above 90% and the DC50 was below 10 nM. In test [3], the Dmax is above 90%, the DC50 is below 1 nM and the “Selectivity in MV411” value was “C (C (10-100 fold))”.
On to `C#Cc1ccc(CNC(=O)[C@@H]2C[C@@H](O)CN2C(=O)[C@@H](NC(=O)N2CCN(C[C@H]3CC[C@H](N4CCc5[nH]c6nnc(-c7ccccc7O)cc6c5[C@H]4C)CC3)CC2)C(C)(C)C)cc1` [I-200], for which the Dmax in test [1] is below 50%; in test [2], above 90%; in test [3] it was 50 to 70%. Also, the half-maximal degradation concentration (DC50) in test [1] is above 100 nM; in test [2] it was above 100 nM; in test [3], 10 to 100 nM. In test [3], the “Selectivity in MV411” value is reported as “C (C (10-100 fold))”.
Regarding `Cc1ncsc1-c1ccc(CNC(=O)[C@@H]2C[C@@H](O)CN2C(=O)C(c2cc(N3CC4(CCC(N5CCC(c6cnc(N7CCc8[nH]c9nnc(-c%10ccccc%10O)cc9c8[C@@H]7C)nc6)CC5)CC4)C3)no2)C(C)C)cc1` (single isomer, unassigned) [I-9], in test [1], the Dmax was 70 to 90% and the DC50 was 10 to 100 nM. Further, in test [2], the Dmax was in the range of 70 to 90% and the DC50 was 10 to 50 nM. In test [3], the Dmax was above 90%, the DC50 was 1 to 10 nM and the “Selectivity in MV411” value is on record as “C (C (10-100 fold))”.
Take `C#Cc1ccc(CNC(=O)[C@@H]2C[C@@H](O)CN2C(=O)[C@@H](NC(=O)N2CCO[C@H](CN3CCC(N4CCC(N5CCN6c7cc(-c8ccccc8O)nnc7NC[C@H]6C5)CC4)CC3)C2)C(C)(C)C)cc1` [I-219]: in test [1], the greatest degradation seen (Dmax) was below 50% and the DC50 is above 100 nM. In test [2], the Dmax was 50 to 70% and the 50% degradation concentration (DC50) was above 100 nM. Besides, in test [3], the Dmax was below 50%, the 50% degradation concentration (DC50) was above 100 nM and the “Selectivity in MV411” value is on record as “C (C (10-100 fold))”.
